In ChEMBL document CHEMBL1201862, “PubChem BioAssay data set” (2004):
“And” between values parts separate entries of the source, which are not always exact repeats. Identical values can stand only once.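 1) Cells in 96-well plates. 2) Compound, 48 h, 5 concentrations. 3) Linear interpolation between surrounding doses. 4) Unreached endpoint = highest concentration. GI50 = concentration required for 50% inhibition of growth.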 The source made the active and inactive calls. Cut-off read from the data, not from the text of the source: active = GI50 up to about 1.1 µM and inactive = higher.

What was measured:
Assay in all cases: growth of human tumour cells (NCI), 48 h
A498 = test system: A498
CAKI-1 = test system: CAKI-1
CCRF-CEM = test system: CCRF-CEM
COLO 205 = test system: COLO 205
HOP-92 = test system: HOP-92
HT-29 = test system: HT-29
IGROV-1 = test system: IGROV-1
KM12 = test system: KM12
LOX IMVI = test system: LOX IMVI
M14 = test system: M14
MDA-MB-231 = test system: MDA-MB-231
NCI-H226 = test system: NCI-H226
OVCAR-3 = test system: OVCAR-3
RPMI-8226 = test system: RPMI-8226
SK-MEL-28 = test system: SK-MEL-28
SR = test system: SR
TK-10 = test system: TK-10
U-251 = test system: U-251
SF-539 = test system: SF-539

Measured: GI50

NCCCC(N)C(=O)O (stereo not drawn)
inactive: A498 > 100 µM | CAKI-1 > 100 µM | CCRF-CEM > 100 µM | COLO 205 > 100 µM | HOP-92 > 100 µM | HT-29 > 100 µM | IGROV-1 > 100 µM | KM12 > 100 µM | LOX IMVI > 100 µM | M14 > 100 µM | MDA-MB-231 > 100 µM | NCI-H226 77.8 µM | OVCAR-3 > 100 µM | RPMI-8226 > 100 µM | SK-MEL-28 > 100 µM | SR > 100 µM | TK-10 > 100 µM | U-251 > 100 µM

COC(=O)C1CC(C=[N+](C)C)=C(SC)N1C(=O)OCc1ccccc1 (stereo not drawn)
inactive: A498 > 100 µM | CAKI-1 > 100 µM | COLO 205 > 100 µM | HOP-92 > 100 µM | HT-29 > 100 µM | IGROV-1 > 100 µM | KM12 > 100 µM | M14 > 100 µM | MDA-MB-231 > 100 µM | OVCAR-3 > 100 µM | RPMI-8226 > 100 µM | SK-MEL-28 > 100 µM | SR > 100 µM | TK-10 > 100 µM | U-251 > 100 µM

CC(=O)OCC1OC(n2c(-c3ccccc3)c(C(C)=O)c(-c3cccc4ccccc34)c(C#N)c2=S)C(OC(C)=O)C(OC(C)=O)C1OC(C)=O (stereo not drawn)
inactive: A498 > 100 µM | CCRF-CEM > 100 µM | COLO 205 > 100 µM | HT-29 > 100 µM | IGROV-1 > 100 µM | KM12 > 100 µM | LOX IMVI > 100 µM | M14 > 100 µM | MDA-MB-231 > 100 µM and 54.1 µM | NCI-H226 > 100 µM | OVCAR-3 > 100 µM | SF-539 > 100 µM | SK-MEL-28 > 100 µM | SR > 100 µM | TK-10 > 100 µM | U-251 > 100 µM

Cc1cc2nc(N)n[n+]([O-])c2cc1C
inactive: A498 > 100 µM | CAKI-1 > 100 µM | CCRF-CEM > 100 µM | COLO 205 > 100 µM | HT-29 > 100 µM | IGROV-1 > 100 µM | KM12 > 100 µM | LOX IMVI > 100 µM | M14 > 100 µM | MDA-MB-231 > 100 µM | NCI-H226 > 100 µM | RPMI-8226 > 100 µM | SF-539 > 100 µM | SK-MEL-28 > 100 µM | SR > 100 µM | TK-10 > 100 µM | U-251 > 100 µM

CC1OC1P(=O)(O)O (stereo not drawn)
inactive: A498 > 100 µM | CAKI-1 > 100 µM | CCRF-CEM 27.5 µM | COLO 205 > 100 µM | HOP-92 > 100 µM | HT-29 > 100 µM | IGROV-1 > 100 µM | KM12 > 100 µM | LOX IMVI > 100 µM | MDA-MB-231 > 100 µM | OVCAR-3 > 100 µM | RPMI-8226 28 µM | SK-MEL-28 > 100 µM | SR > 100 µM | TK-10 > 100 µM | U-251 > 100 µM

Cn1c(C(C)(C)OC(=O)Oc2ccccc2)cnc1[N+](=O)[O-]
inactive: A498 > 100 µM | CAKI-1 > 100 µM | COLO 205 71.1 µM | HOP-92 > 100 µM | HT-29 34 µM | IGROV-1 55.6 µM | KM12 58.6 µM | M14 > 100 µM | MDA-MB-231 26.1 µM | NCI-H226 36.6 µM | OVCAR-3 93.5 µM | RPMI-8226 21 µM | SF-539 > 100 µM | SK-MEL-28 > 100 µM | SR 16.8 µM | TK-10 > 100 µM | U-251 > 100 µM

COc1cc(-c2cc(OC)c(OC)c3ccc(Br)cc23)c2cc(Br)ccc2c1OC
inactive: A498 23.8 µM | CAKI-1 47.4 µM | COLO 205 39.5 µM | HOP-92 18.9 µM | HT-29 19.2 µM | IGROV-1 23.9 µM | LOX IMVI 19.3 µM | M14 23.2 µM | MDA-MB-231 22.4 µM | NCI-H226 23.3 µM | OVCAR-3 21 µM | RPMI-8226 21.4 µM | SF-539 21.5 µM | SK-MEL-28 20.1 µM | SR 34.4 µM | TK-10 31.1 µM | U-251 20.5 µM

O=C1CSC(c2cccc(Oc3ccccc3)c2)N1c1cccc(Cl)c1Cl (stereo not drawn)
inactive: A498 26.1 µM | CAKI-1 65.2 µM | CCRF-CEM 18.5 µM | COLO 205 20 µM | HOP-92 12.3 µM | HT-29 22.4 µM | KM12 26.7 µM | LOX IMVI 13.6 µM | M14 40.4 µM | MDA-MB-231 22.3 µM | NCI-H226 28.5 µM | OVCAR-3 30.5 µM | SF-539 22.9 µM | SK-MEL-28 50 µM | SR 19.8 µM | TK-10 34.6 µM | U-251 18.2 µM

CN(C)CCNC(=O)c1cnn(C)c1[N+](=O)[O-]
inactive: A498 > 100 µM | CAKI-1 > 100 µM | CCRF-CEM > 100 µM | COLO 205 21.6 µM | HT-29 33.4 µM | IGROV-1 > 100 µM | KM12 68.1 µM | LOX IMVI 46.7 µM | M14 > 100 µM | MDA-MB-231 > 100 µM | NCI-H226 > 100 µM | OVCAR-3 24.5 µM | RPMI-8226 > 100 µM | SF-539 > 100 µM | SK-MEL-28 > 100 µM | SR > 100 µM | TK-10 > 100 µM | U-251 > 100 µM

O=C1c2ccccc2C(=O)N1NC1=NCCN1
inactive: A498 > 100 µM | CAKI-1 > 100 µM | CCRF-CEM > 100 µM | COLO 205 > 100 µM | HT-29 > 100 µM | IGROV-1 > 100 µM | KM12 > 100 µM | LOX IMVI > 100 µM | M14 > 100 µM | MDA-MB-231 > 100 µM | NCI-H226 > 100 µM | OVCAR-3 > 100 µM | RPMI-8226 > 100 µM | SF-539 > 100 µM | SK-MEL-28 > 100 µM | SR > 100 µM | TK-10 > 100 µM | U-251 > 100 µM

C=C1CCC2CC1C(C(=O)c1c[nH]c3ccccc13)=NC2(C)C (stereo not drawn)
inactive: A498 > 100 µM | CAKI-1 > 100 µM | CCRF-CEM > 100 µM | COLO 205 > 100 µM | HT-29 > 100 µM | IGROV-1 > 100 µM | KM12 > 100 µM | LOX IMVI > 100 µM | M14 > 100 µM | MDA-MB-231 > 100 µM | NCI-H226 > 100 µM | OVCAR-3 > 100 µM | RPMI-8226 91 µM | SF-539 > 100 µM | SK-MEL-28 > 100 µM | SR > 100 µM | U-251 > 100 µM

CCC1c2[nH]c3ccccc3c2C[C@H]2C(=O)NC(Cc3c[nH]c4ccccc34)C(=O)N12 (stereo partly drawn)
inactive: A498 30.5 µM | CAKI-1 28.8 µM | COLO 205 18.8 µM | HOP-92 26.5 µM | HT-29 24.2 µM | IGROV-1 24.4 µM | KM12 18.9 µM | LOX IMVI 22.1 µM | M14 21.5 µM | MDA-MB-231 17.1 µM | NCI-H226 32.7 µM | OVCAR-3 18.2 µM | RPMI-8226 19.4 µM | SK-MEL-28 33.9 µM | SR 16.9 µM | TK-10 23.2 µM | U-251 17.5 µM
